Each structure is given as a SMILES string.

A short description of the assay: Inhibition of HCV RNA replication in Huh7 cells.
`CC(C)CCn1c(=O)c(C2=Nc3ccccc3S(=O)(=O)N2)c(O)c2cc(NCC(=O)O)ccc21` [[3-(1,1-dioxo-1,4-dihydrobenzo[1,2,4]thiadiazin-3-yl)-4-hydroxy-1-(3-methylbutyl)-1H-dihydroquinolin-6-ylamino]acetic acid] had an EC50 of 2490 nM.
Turning to `CC(C)CCn1c(=O)c(C2=Nc3ccccc3S(=O)(=O)N2)c(O)c2cc(OCC#N)ccc21` [4-[3-(1,1-dioxo-1,4-dihydrobenzo[1,2,4]thiadiazin-3-yl)-4-hydroxy-1-(3-methylbutyl)-2-oxo-1,2-dihydroquinolin-6-yloxy]acetonitrile], the EC50 was found to be 298 nM.
In turn, `O=c1c(C2=Nc3ccccc3S(=O)(=O)N2)c(O)c2ccccc2n1CCC1CC1` [1-(2-cyclopropylethyl)-3-(1,1-dioxo-1,4-dihydro-1-benzo[1,2,4]-thiadiazin-3-yl)-4-hydroxy-1H-quinolin-2-one] returned an EC50 of 152 nM. Against the preceding compound, the EC50 is about 2-fold lower.
For `O=c1c(C2=Nc3ccccc3S(=O)(=O)N2)c(O)c2ccccc2n1Cc1ccoc1` [3-(1,1-dioxo-1,4-dihydrobenzo[1,2,4]thiadiazin-3-yl)-1-furan-3-ylmethyl-4-hydroxy-1H-quinolin-2-one], the midpoint of the response, the EC50, lay at 389 nM.
With `O=c1c(C2=Nc3ccccc3S(=O)(=O)N2)c(O)c2ccccc2n1-c1ccccc1` [3-(1,1-dioxo-1,2-dihydrobenzo[1,2,4]thiadiazin-3-yl)-4-hydroxy-1-phenyl-1Hquinolin-2-one] the figure was 774 nM; with `CCCCn1c(=O)c(C2=NS(=O)(=O)c3ccccc3N2)c(O)c2ccccc21` [1-Butyl-3-(1,1-dioxo-1,4-dihydro-1lambda*6*-benzo[1,2,4]thiadiazin-3-yl)-4-hydroxy-1H-quinolin-2-one], 444 nM.
Compound `CC(C)CCn1c(=O)c(C2=Nc3ccccc3S(=O)(=O)N2)c(O)c2cc(N)ccc21` [6-amino-3-(1,1-dioxo-1,2-dihydrobenzo[1,2,4]thiadiazin-3-yl)-4-hydroxy-1-(3-methylbutyl)-1H-quinolin-2-one] registered an EC50 of 274 nM.
The same measure for `CC(C)CCn1c(=O)c(C2=Nc3ccccc3S(=O)(=O)N2)c(O)c2c(F)cccc21` [3-(1,1-dioxo-1,2-dihydrobenzo[1,2,4]thiadiazin-3-yl)-5-fluoro-4-hydroxy-1-(3-methylbutyl)-1H-quinolin-2-one]: 381 nM.
The same measure for `Nc1ccc2c(c1)c(O)c(C1=Nc3ccccc3S(=O)(=O)N1)c(=O)n2CCC1CC1` [6-Amino-1-(2-cyclopropylethyl)-3-(1,1-dioxo-1,4-dihydrobenzo[1,2,4]thiadiazin-3-]: 157 nM; for `CC(C)CCn1c(=O)c(C2=Nc3ccccc3S(=O)(=O)N2)c(O)c2cc(F)ccc21` [3-(1,1-dioxo-1,4-dihydro-1lambda*6*-benzo[1,2,4]thiadiazin-3-yl)-6-fluoro-4-hydroxy-1-(3-methyl-butyl)-1H-quinolin-2-one]: 261 nM; for `O=c1c(C2=Nc3ccccc3S(=O)(=O)N2)c(O)c2ccccc2n1CC1CCC1` [1-cyclobutylmethyl-3-(1,1-dioxo-1,2-dihydrobenzo[1,2,4]thiadiazin-3-yl)-4-hydroxy-1-1H-quinolin-2-one]: 241 nM.
With `CCOC(=O)CNc1ccc2c(c1)c(O)c(C1=Nc3ccccc3S(=O)(=O)N1)c(=O)n2CCC(C)C` [[3-(1,1-dioxo-1,4-dihydrobenzo[1,2,4]thiadiazin-3-yl)-4-hydroxy-1-(3-methylbutyl)-1H-dihydroquinolin-6-ylamino]acetic acid ethyl ester] the figure was 265 nM; with `CC(C)CCn1c(=O)c(C2=Nc3ccccc3S(=O)(=O)N2)c(O)c2cc(Cl)ccc21` [6-chloro-3-(1,1-dioxo-1,2-dihydrobenzo[1,2,4]thiadiazin-3-yl)-4-hydroxy-1-(3-methylbutyl)-1H-quinolin-2-one], 1200 nM.
`Cc1ccc2c(c1)c(O)c(C1=Nc3ccccc3S(=O)(=O)N1)c(=O)n2CCC(C)C` [3-(1,1-dioxo-1,2-dihydrobenzo[1,2,4]thiadiazin-3-yl)-4-hydroxy-6-methyl-1-(3-methylbutyl)-1H-quinolin-2-one] displayed a half-maximal effective concentration (EC50) of 180 nM. Against the preceding compound, the EC50 is about 6.7-fold lower.
`CC(C)CCn1c(=O)c(C2=Nc3ccccc3S(=O)(=O)N2)c(O)c2ccccc21` gave an EC50 of 417 nM.
The same measure for `CC(C)CCn1c(=O)c(C2=Nc3ccccc3S(=O)(=O)N2)c(O)c2cc(OCC(N)=O)ccc21` [4-[3-(1,1-dioxo-1,4-dihydrobenzo[1,2,4]thiadiazin-3-yl)-4-hydroxy-1-(3-methylbutyl)-2-oxo-1,2-dihydroquinolin-6-yloxy]acetamide]: 511 nM.

Broadly, the EC50 is the concentration giving half of the maximal effect. The low end stands for an effect from little substance, the high end for a need for much substance.
